Measured values: PMC9669016, “First-in-human phase Ia study of the PI3Kα inhibitor CYH33 in patients with solid tumors” (Nature Communications, 2022)
Like-named read-outs stand apart in the source and are kept apart here.

Experiment: Clinical pharmacokinetics: plasma CYH33 and I27 by LC/MS/MS
Assay type: in vivo, human
Details: for AUC(0-t) / Cmax / Tmax: human, plasma, oral
Procedure: The PK characteristics of CYH33 and its active metabolite I27 were evaluated after single and multiple dose administrations. PK data were obtained from 37 patients from 7 dose cohorts: 1 mg (n = 1), 5 mg (n = 1), 10 mg (n = 2), 20 mg (n = 6), 30 mg (n = 12), 40 mg (n = 13), and 60 mg (n = 2). Intensive and sparse PK sampling was performed. Prior to initiating a continuous daily treatment cycle, the first 5 patients participated in a single dose PK treatment period with a 7-day washout in order to determine the terminal-phase half-life (t1/2) of CYH33 and its active metabolite I27. Based on the single dose PK data for CYH33 of the first 5 patients at doses of 1, 5, 10 and 20 mg, the PK and metabolic characteristics of CYH33 and I27 were evaluated. Combined with the pre-specified rules in the protocol and deliberation from the SMC, subsequent patients directly entered the continuous dose phase.
Blood samples for PK evaluation were collected at: (1) during the single dose phase: on day 1 pre-dose and 0.5, 1, 2, 4, 8, 12, 24, 36, 48, and 72 h post-dose; (2) during the continuous dose phase: C1D1/Cycle 1 Day 28 pre-dose, and 0.5, 1, 2, 3, 4, 6, 8, 12, and 24 h post-dose; and C1D8/Day 15 pre-dose. Plasma concentrations of CYH33 and I27 were analyzed using a liquid chromatography-tandem mass spectrometry (LC/MS/MS) assay (Shimadzu Corporation, LC-30AD) with a lower limit of quantification (LLOQ) of 2.585 ng/mL and 1.0 ng/mL for CYH33 and I27, respectively. […] Blood samples for measuring the FBG level were collected within 30 min before dosing on C1D1, C1D15, and on the first day of subsequent treatment cycles.

[1] = CYH33, Cycle 1 Day 28, 1 mg (n=1)
[2] = CYH33, Cycle 1 Day 28, 5 mg (n=1)
[3] = CYH33, Cycle 1 Day 28, 10 mg (n=2)
[4] = CYH33, Cycle 1 Day 28, 20 mg (n=6)
[5] = CYH33, Cycle 1 Day 28, 30 mg (n=9)
[6] = CYH33, Cycle 1 Day 28, 40mg (n=7)
[7] = CYH33, Cycle 1 Day 28, 60 mg (n=2)

COC(=O)Nc1cc(C(F)(F)F)c(-c2nc(N3CCOCC3)c3cc(CN4CCN(S(C)(=O)=O)CC4)cn3n2)cn1 [CYH33, methyl (5-(6-((4-(methylsulfonyl)piperazin-1-yl)methyl)−4-morpholinopyrrolo[2,1-f][1,2,4]triazin-2-yl)−4-(trifluoromethyl)pyridin-2-yl)carbamate]
Cmin, mean [1]: 0 µg/mL | Rac_AUC, mean [1]: 2.0 | Rac_Cmax, mean [1]: 1.0 | CLss/F, mean [2]: 8.6 L/h | Cmin, mean [2]: 0.0151 µg/mL | Rac_AUC, mean [2]: 2.2 | Rac_Cmax, mean [2]: 2.3 | CLss/F, mean [3]: 8.2 L/h | Cmin, mean [3]: 0.0334 µg/mL | Rac_AUC, mean [3]: 2.0 | Rac_Cmax, mean [3]: 1.8 | CLss/F, mean [4]: 8.1 L/h | Cmin, mean [4]: 0.0808 µg/mL | Rac_AUC, mean [4]: 4.2 | Rac_Cmax, mean [4]: 3.3 | CLss/F, mean [5]: 11.0 L/h | Cmin, mean [5]: 0.1114 µg/mL | Rac_AUC, mean [5]: 2.9 | Rac_Cmax, mean [5]: 1.9 | CLss/F, mean [6]: 11.8 L/h | Cmin, mean [6]: 0.1265 µg/mL | Rac_AUC, mean [6]: 4.3 | Rac_Cmax, mean [6]: 3.2 | CLss/F, mean [7]: 15.9 L/h | Cmin, mean [7]: 0.1332 µg/mL | Rac_AUC, mean [7]: 3.2 | Rac_Cmax, mean [7]: 2.2 | average accumulation of exposure (AUC0-24h) at steady state vs Cycle 1 Day 1 (daily dosing): around 2.9 fold | time to steady state (daily dosing): ≤ 8 days | AUC(0-t) (1 mg, CYH33, Cycle 1 Day 1, 1 mg (n = 1), read-out: AUC0-24h, mean (CV%)): 0.026 µg·h/mL | Cmax (1 mg, CYH33, Cycle 1 Day 1, 1 mg (n = 1), read-out: Cmax, mean (CV%)): 0.0046 µg/mL | Tmax (1 mg, CYH33, Cycle 1 Day 1, 1 mg (n = 1), read-out: Tmax, median (min-max)): 1 h | AUC(0-t) (1 mg, CYH33, Cycle 1 Day 28, 1 mg (n=1), read-out: AUC0-24h, mean): 0.0516 µg·h/mL | Cmax (1 mg, CYH33, Cycle 1 Day 28, 1 mg (n=1), read-out: Cmax, mean): 0.0048 µg/mL | Tmax (1 mg, CYH33, Cycle 1 Day 28, 1 mg (n=1), read-out: Tmax, median): 4 h | AUC(0-t) (5 mg, CYH33, Cycle 1 Day 1, 5 mg (n = 1), read-out: AUC0-24h, mean (CV%)): 0.266 µg·h/mL | Cmax (5 mg, CYH33, Cycle 1 Day 1, 5 mg (n = 1), read-out: Cmax, mean (CV%)): 0.0246 µg/mL | Tmax (5 mg, CYH33, Cycle 1 Day 1, 5 mg (n = 1), read-out: Tmax, median (min-max)): 2 h | AUC(0-t) (5 mg, CYH33, Cycle 1 Day 28, 5 mg (n=1), read-out: AUC0-24h, mean): 0.582 µg·h/mL | Cmax (5 mg, CYH33, Cycle 1 Day 28, 5 mg (n=1), read-out: Cmax, mean): 0.0562 µg/mL | Tmax (5 mg, CYH33, Cycle 1 Day 28, 5 mg (n=1), read-out: Tmax, median): 1 h | AUC(0-t) (10 mg, CYH33, Cycle 1 Day 1, 10 mg (n = 2), read-out: AUC0-24h, mean (CV%)): 0.624 µg·h/mL | Cmax (10 mg, CYH33, Cycle 1 Day 1, 10 mg (n = 2), read-out: Cmax, mean (CV%)): 0.0431 µg/mL | Tmax (10 mg, CYH33, Cycle 1 Day 1, 10 mg (n = 2), read-out: Tmax, median (min-max)): 4 h | AUC(0-t) (10 mg, CYH33, Cycle 1 Day 28, 10 mg (n=2), read-out: AUC0-24h, mean): 1.23 µg·h/mL | Cmax (10 mg, CYH33, Cycle 1 Day 28, 10 mg (n=2), read-out: Cmax, mean): 0.0789 µg/mL | Tmax (10 mg, CYH33, Cycle 1 Day 28, 10 mg (n=2), read-out: Tmax, median): 3 h | AUC(0-t) (20 mg, CYH33, Cycle 1 Day 1, 20 mg (n = 5), read-out: AUC0-24h, mean (CV%)): 0.763 µg·h/mL | Cmax (20 mg, CYH33, Cycle 1 Day 1, 20 mg (n = 5), read-out: Cmax, mean (CV%)): 0.0563 µg/mL | Tmax (20 mg, CYH33, Cycle 1 Day 1, 20 mg (n = 5), read-out: Tmax, median (min-max)): 2 h | AUC(0-t) (20 mg, CYH33, Cycle 1 Day 28, 20 mg (n=6), read-out: AUC0-24h, mean): 2.63 µg·h/mL | Cmax (20 mg, CYH33, Cycle 1 Day 28, 20 mg (n=6), read-out: Cmax, mean): 0.154 µg/mL | Tmax (20 mg, CYH33, Cycle 1 Day 28, 20 mg (n=6), read-out: Tmax, median): 3 h
